Results from patent US20040265917A1, “Methods of measuring the ability of a test compound to inactivate a biological target in cells of a subject” (priority 2003, published 2004).

Assays:
[1] = target: T1, MetAP-2 (Rattus norvegicus, UniProt P38062); assay: Free MetAP-2 ELISA (streptavidin plates, Compound 1 capture) in white blood cells and tissues of rats after a single dose, Phase IIa/IIb; assay type: in vivo, Sprague-Dawley rats
T1 construct: percentage of free MetAP-2 remaining in white blood cells, liver, spleen, lymph nodes and thymus; from tissue; host or cells: white blood cells, liver, spleen, lymph nodes, thymus of Sprague-Dawley rats
Protocol: Determination of Free MetAP-2 in Rat White Blood Cell Lysates and tissues Following Administration of Compound 2
Preparation of WBC Lysates
Spleen Homogenization and Lysis Procedure
Liver, Thymus and Lymph Nodes Homogenization and Lysis Procedure
Treat 20 μL of each lysate dividing into polypropylene 96-well plates: +Compound 2 Samples (Background Controls): Dilute 40 mM Compound 2 stock 1:4000 for a 10 μM working stock and add 2 μL to background samples for a final concentration of 1 μM Compound 2.
Dilute 40 mM Compound 1 stock 1:4000 for a 10 μM working stock and add 2 μL of diluted to the samples and 5 μL to the rMetAP2 standards for a final concentration of 1 μM; cover, tap gently to mix, and incubate for 1 hr at room temperature without shaking.
Remove the streptavidin plates from 4° C. at least 30 min prior to use Dilute each of the samples 1:10 (180 μL into the 20 μL sample) with PBST and mix well.
Transfer 20 μL and 40 μL aliquots of the diluted samples to streptavidin plates, adding to 30 μL and 10 μL of PBST (for total volumes of 50 μL each), and mix well: duplicate aliquots of each volume for the signal samples (signal sample=−Compound 2) and single aliquots of each volume for the background samples (background samples=+Compound 2).
Cover and incubate the plates at room temperature on plate shaker for 1 hr at medium speed.
Wash 3 times manually with 50 μL of 2% (w/v) SDS. Flick plate briskly over sink to remove 2% SDS. Tap on napkin to blot.
Add 50 μL of 1:500 anti-MetAP2 antibody in PBST using 12 channel pipette, so triplicates receive antibody at same time, cover and incubate at room temp. on plate shaker for 1 hr at medium speed. One plate requires 5 mL of PBST plus 10 μL of anti-MetAP2 antibody.
Add 50 μL of 1:5000 goat anti-rabbit-HRP antibody in PBST using the 12 channel pipette, cover and incubate at room temperature on plate shaker for 1 hr at medium speed. One plate requires 5 mL of PBST plus 1 μL anti-rabbit-HRP antibody. Aliquot 50 μL per well.
10 minutes after adding the TMB substrate, add 100 μL of 1 N H2SO4 and then measure the absorbance at 450 nm.
The purpose of this study was to determine the percentage of free MetAP-2 remaining in white blood cells, liver, spleen, lymph nodes and thymus as a pharmacodynamic marker of Compound 2 activity after a single dose was administered to Sprague-Dawley rats.
A repeat examination of MetAP-2 inhibition in WBCs was conducted with various dose levels of Compound 2, administered either IV or PO in female SD rats. In addition, thymus and liver were collected and snap frozen in liquid nitrogen for MetAP-2 analysis.
At 4, 24, 48, 72, 96, 120 hours post dose whole blood (≧3.0 mL) was taken from anesthetized animals (isoflurane inhalation to effect) via cardiac puncture, using a 20 gauge needle. Blood was immediately placed into EDTA tubes and stored at 4-8° C.
After blood collection animals were sacrificed by CO2 inhalation. The entire thymus and left lateral lobe of the liver were minced, placed into separate tissue cassettes, and snap frozen in liquid nitrogen for future MetAP-2 analysis.
To characterize MetAP-2 turnover in tissues after a single oral administration of Compound 2 and to determine if any sex difference existed.
Blood and tissue samples were collected from SD rats after receiving a single dose of Compound 2. Inhibition of MetAP-2 by Compound 2 was monitored using an ELISA designed to measure the amount of free MetAP-2 in a sample. Cells were lysed and then treated with Compound 1. Compound 1 covalently binds to the active site of MetAP-2 molecules that have not already been derivatized by Compound 2. The resulting biotinylated MetAP-2 is captured onto immobilized streptavidin, then detected with an anti-MetAP-2 antibody and an enzyme-linked secondary antibody. Phase I was used as a pilot study to determine if MetAP-2 inhibition could be monitored in female SD rat white blood cell (WBC) lysates after a single 30 mg/kg dose of Compound 2 administered IV, IP, PO or SC. […]

[2] = target: T2, MetAP-2 (Mus musculus, UniProt O08663); assay: Free MetAP-2 gel shift assay with fluorescent fumagillin analogue (Compound 3) in tumor and liver tissue of mice bearing B16F10 murine melanoma tumors; assay type: in vivo, C57BL/6 mice; conditions: 3 or 30 mg/kg PO every other day; samples 24 hours after last dose
T2 construct: from tissue; host or cells: B16F10 murine melanoma tumor and liver of male C57BL/6 mice
Protocol: (§1) Male C57BL/6 mice were divided into six groups of 10 mice each. Each mouse received an implant of 10^6B16F10 murine melanoma cells in 100 μL of PBS above the leg. At day seven following implantation, one group of mice (Group 6) began a regimen of 100 mg/kg Compound 2 every other day, administered oral gavage (PO). At day 13 post implantation, the remaining groups began receiving treatment as follows: Group 1: […] vehicle (11 % hydroxypropyl cyclodextrin) every other day; Group 2: 5-fluorouracil 50 mg/kg in 1% propylene glycol/D5W, PO every other day; Group 3: Compound 2, 3 mg/kg PO every other day; Group 4: Compound 2, 30 mg/kg PO, every other day; Group 5: Compound 2, 100 mg/kg PO, every other day. In each group, the last dose was administered on day 19 post implantation, and blood, spleen, tumor, thymus and liver samples were collected from the mice 24 hours following the last dose.
(§2) The tissue samples were prepared for analysis following the protocols set forth in Example 2 and analyzed for free MetAP-2 using the ELISA protocol of Example 2. The prepared tissue samples were also analyzed for free MetAP-2 activity using the following protocol.
1. Dilute samples in 1.5 mL eppendorf tubes to their desired concentration in lysis buffer in 10 uL volume. See calculations.
2. To each tube, add 1 uL of 10 uM Compound 3stock that has been diluted in lysis buffer.
3. Incubate on ice for 1.0 hours. […]

[3] = target: T2, MetAP-2; assay: Free MetAP-2 ELISA in tumor and liver tissue of mice bearing B16F10 murine melanoma tumors; assay type: in vivo, C57BL/6 mice; conditions: 3 or 30 mg/kg PO every other day; samples 24 hours after last dose
Protocol: as §1, §2
The results of this study are set forth in FIG. 5, which provides a comparison of the results obtained in tumor tissue and liver tissue using the ELISA protocol and those obtained using the gel-shift analysis.

[4] = target: T1, MetAP-2; assay: Phase I pilot free MetAP-2 ELISA (streptavidin beads) in white blood cell lysates after a single dose; assay type: in vivo, female Sprague-Dawley rats; conditions: single 30 mg/kg dose IV, IP, PO or SC; female SD rats; all routes of administration
Protocol: MetAP-2 inhibition in white blood cells (WBC) was examined after a single dose (30 mg/kg) of Compound 2 , administered either by intravenous (IV), intraperitoneal (IP), oral gavage (PO) or subcutaneous (SC) routes, to female Sprague-Dawley (SD) rats
A ≧1.0 mL whole blood sample was taken from 3 animals/group/time point (4, 24, 48, 72, 96, and 120 hours post dose) for MetAP-2 analysis. Each animal was bled only once by conscious jugular venipuncture. Blood was immediately placed into EDTA tubes and stored at 4-8° C. Two blood smears from each sample were made for possible differential count analysis.
Blood and tissue samples were collected from SD rats after receiving a single dose of Compound 2. Inhibition of MetAP-2 by Compound 2 was monitored using an ELISA designed to measure the amount of free MetAP-2 in a sample. Cells were lysed and then treated with Compound 1. […] The resulting biotinylated MetAP-2 is captured onto immobilized streptavidin, then detected with an anti-MetAP-2 antibody and an enzyme-linked secondary antibody. Phase I was used as a pilot study to determine if MetAP-2 inhibition could be monitored in female SD rat white blood cell (WBC) lysates after a single 30 mg/kg dose of Compound 2 administered IV, IP, PO or SC. […] Following this analysis it was determined that signal from sample replicates were highly variable and the assay required revision. […]

[5] = Phase IIb, 3 mg/kg PO single dose, 48 hr

T2 sequence (O08663 whole entry): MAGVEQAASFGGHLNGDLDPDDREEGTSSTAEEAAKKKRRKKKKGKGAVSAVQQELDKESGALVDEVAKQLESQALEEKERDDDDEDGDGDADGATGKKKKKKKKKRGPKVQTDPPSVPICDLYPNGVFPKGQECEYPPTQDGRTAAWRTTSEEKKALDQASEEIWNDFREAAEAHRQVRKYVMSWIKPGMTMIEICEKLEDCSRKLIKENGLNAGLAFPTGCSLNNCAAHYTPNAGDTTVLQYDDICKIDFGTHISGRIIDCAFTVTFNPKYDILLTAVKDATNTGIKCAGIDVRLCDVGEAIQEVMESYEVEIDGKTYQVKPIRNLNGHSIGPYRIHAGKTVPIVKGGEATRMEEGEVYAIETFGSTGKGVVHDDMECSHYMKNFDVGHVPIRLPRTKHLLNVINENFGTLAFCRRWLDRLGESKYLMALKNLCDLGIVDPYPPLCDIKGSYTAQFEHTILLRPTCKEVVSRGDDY
T1 sequence (P38062 whole entry): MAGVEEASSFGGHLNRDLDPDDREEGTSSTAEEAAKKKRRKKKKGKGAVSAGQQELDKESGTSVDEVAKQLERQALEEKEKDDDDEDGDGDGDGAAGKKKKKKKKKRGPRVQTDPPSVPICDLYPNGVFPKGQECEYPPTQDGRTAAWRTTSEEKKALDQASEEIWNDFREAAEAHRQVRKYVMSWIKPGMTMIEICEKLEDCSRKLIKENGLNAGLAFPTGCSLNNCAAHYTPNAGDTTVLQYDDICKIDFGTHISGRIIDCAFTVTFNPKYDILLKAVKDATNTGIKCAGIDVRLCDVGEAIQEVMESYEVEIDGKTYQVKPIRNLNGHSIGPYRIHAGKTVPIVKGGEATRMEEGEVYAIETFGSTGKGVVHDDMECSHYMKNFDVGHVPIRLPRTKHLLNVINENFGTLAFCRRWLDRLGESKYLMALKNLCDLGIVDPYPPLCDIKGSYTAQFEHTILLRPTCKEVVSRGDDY

- duration of inhibition of MetAP-2 in WBC ([1]; Phase IIa, female SD rats, 30 mg/kg PO versus 0.3 and 3 mg/kg PO, single dose): more prolonged inhibition
- sex differences in MetAP-2 inhibition ([1]; Phase IIb, male and female SD rats, 0.3 and 3 mg/kg PO, single dose): no consistent sex differences
- effect on free MetAP-2 levels in tissues other than WBC and liver (spleen, thymus, lymph nodes) ([1]; Phase IIb, 0.3 mg/kg PO, single dose): no significant effect
- free MetAP-2 level in WBC, average (±SEM) [1, 5]: 13%±4%
- free MetAP-2 level in liver, average (±SEM) [1, 5]: 13%±5%
- free MetAP-2 level in lymph nodes, average (±SEM) [1, 5]: 63%±16%
- free MetAP-2 level in spleen, average (±SEM) [1, 5]: 41%±5%
- free MetAP-2 level in thymus tissue [1, 5]: recovered completely
- recovery of free MetAP-2 in WBC, 3 mg/kg versus 0.3 mg/kg group ([1]; Phase IIb, single PO dose, by 72 hr): recovered to similar free MetAP-2 levels
- average free MetAP-2 remaining in tissues when no measurable free MetAP-2 in WBC ([1]; groups with no measurable free MetAP-2 in the WBC): ≤ 3%
- inhibition at 3 mg/kg ([1]; rat, Phase IIb, 3 mg/kg PO single dose, four hours after dosing, WBC, liver, spleen, thymus, lymph nodes, read-out: average inhibition of MetAP-2 in all compartments): ≥ 95%
- free MetAP-2 levels in liver tissue relative to controls (gel shift) [2]: dose-dependent decrease
- free MetAP-2 levels in tumor tissue relative to controls (gel shift) [2]: dose-dependent decrease
- free MetAP-2 levels in liver tissue relative to controls (ELISA) [3]: dose-dependent decrease
- free MetAP-2 levels in tumor tissue relative to controls (ELISA) [3]: dose-dependent decrease
- free MetAP-2 signal in WBC lysates [4]: reduction followed by a recovery
Structure (SMILES): CO[C@@H]1[C@H](OC(=O)N[C@@H](C(N)=O)C(C)C)CC[C@]2(CO2)[C@H]1[C@@]1(C)O[C@@H]1CC=C(C)C [Compound 2, (1-Carbamoyl-2-methyl-propyl)-carbamic acid-(3R, 4S, 5S, 6R )-5-methoxy-4-[(2R, 3R)-2-methyl-3-(3-methyl-but-2-enyl)-oxiranyl]-1-oxa-spiro[2.5]oct-6-yl ester]
- rank order of responsiveness of organs (MetAP-2 inhibition relative to WBC) ([1]; Phase IIb, single PO dose, tissues plotted relative to WBC): liver (most inhibited)>spleen≅lymph nodes>thymus
